Experimental data: patent US20120135864A1, “POLLINATION IMPROVER” (TAMINCO, NAAMLOZE VENNOOTSCHAP, priority 2009, published 2012)

Experiments:
Format in all cases: in vivo
Winter Barley cv Carat = test: Winter barley pot trial under glasshouse conditions: grain yield and thousand grain weight; details: for Grain Yield (%) T1 Timing / Grain Yield (%) T2 Timing: untreated = 100; for Grain Yield (g per Pot) T1 Timing: sprayed at T1 (Growth Stage 52: one quarter ear emergence); for Grain Yield (g per Pot) T2 Timing: sprayed at T2 (Growth Stage 65-69: at time of anthesis)
Experimental: (§1) The applied concentration of the composition of the present invention can vary widely depending on the water volume applied to plants as well as other factors such as plant age and size, and plant sensitivity to the final seed yield and crop quality improver. […] The rate of other components such as spreaders and stickers can be 50-200 ml per ha. The rate of cytokinin can typically be 0.001 to 1.0 percent of the formulation. […] ADD=at least one from class (f) each at <3 g/l, plus at least one from class (c). Winter Barley: […] Harvested: 28 July. […] Harvested: 28 July. Navy Bean: […] Harvested: 28 August. […] Harvested: 28 August. Statistical Layout: Randomised Complete Block trial, under glasshouse conditions, United Kingdom.

Winter Wheat cv Limerick = test: Winter wheat pot trial under glasshouse conditions: grain yield and thousand grain weight; details: for Grain Yield (%) T1 Timing / Grain Yield (%) T2 Timing: relative to untreated; for Grain Yield (g per Pot) T1 Timing: sprayed at T1 (Growth Stage 52: one quarter ear emergence); for Grain Yield (g per Pot) T2 Timing: sprayed at T2 (Growth Stage 65-69: at time of anthesis)
Experimental: as §1

[1] = system: Phaseolus vulgaris (NAVY BEAN) cv Primel; test: Navy bean pot trial under glasshouse conditions: seed yield and seed weight; details: for Seed Yield (%) T1 Timing / Seed Yield (%) T2 Timing: relative to untreated; for Seed Yield (g per Pot) T1 Timing: sprayed at T1 (Growth Stage R1: first flowering); for Seed Yield (g per Pot) T2 Timing: sprayed at T2 (Growth Stage R3)
Experimental: as §1

Glycine max (SOYBEAN) = test: Soybean pot trial under glasshouse conditions: seed yield and thousand seed weight; details: for Seed Yield (%) T1 Timing / Seed Yield (%) T2 Timing: relative to untreated; for Seed Yield (g per Pot) T1 Timing: sprayed at T1 (Growth Stage R1: first flowering); for Seed Yield (g per Pot) T2 Timing: sprayed at T2 (Growth Stage R3)
Experimental: as §1

[2] = system: Winter Wheat (Mean of 3 Varieties); test: Grain quality improvement pot trial, winter wheat
Text: (§2) Thousand grain weight, specific weight and % screenings are different aspects of crop quality. For example, specific weight (bushel weight) is the weight of a given volume of grain, expressed in kg/hl. For example, growers have to meet standards of 76 for wheat and 64 for barley in order to meet minimum quality requirements. Varieties with the highest values are those most likely to produce acceptable grain lots. Aspects of crop quality for different varieties of crops are found in The Pocket Guide to Varieties of Cereals, Oilseeds and Pulses (NIAB Association). Other quality standards include, but are not limited to, endosperm texture, protein content (%), Hagberg falling number, Zeleny volume (cc), Chopin Alveograph, malt extract, IBD approval—brewing, IBD approval—distilling, IBD approval—grain distilling, sieving %<2.25 mm, sieving %<2.5 mm, nitrogen content, kernel content, sieving %<2.0 mm, oil content (%), oil type, hilum colour, overseas malting, hot water extract, and seed colour. Examples of % screenings are 2.2 mm and 2.5 mm. Such measures can be used in determining the effect provided by the present invention.
(§3) The TAMPF formulation example in these experiments included AN+AC+ADD, applied at the rate of 1 litre per hectare. ADD=at least one from class (f) each at <3 g/l, plus at least one from class (c).
(§4) Trials information: grown in pots in standard multi-purpose compost of pH 6.5, at 6/7 seeds per 9 cm pot (winter wheat), or 5/6 seeds per 9 cm pot (winter barley). Sprayed at the start of the anthesis growth stage (=shortly after ear emergence: GS60)

[3] = system: Winter Barley (Mean of 3 Varieties); test: Grain quality improvement pot trial, winter barley
Text: as §2, §3, §4

[4] = sprayed at start of anthesis (GS60)

In the case of `CC(=O)Nc1ccc(O)cc1` [AC, N-(4-hydroxypheyl)acetamide, reference compound], the “Grain Yield (%) T1 Timing” value (Winter Barley cv Carat; T1 (Growth Stage 52)) is reported as 102.8%, the “Grain Yield (%) T2 Timing” value (Winter Barley cv Carat; T2 (Growth Stage 65-69)) is reported as 98.8% and the “Grain Yield (g per Pot) T1 Timing” value (Winter Barley cv Carat) is reported as 25.5 g per Pot. The “Grain Yield (g per Pot) T2 Timing” value (Winter Barley cv Carat) was 24.5 g per Pot, the “Grain Yield (%) T1 Timing” value (Winter Wheat cv Limerick; T1 (Growth Stage 52)) was 98.0% and the “Grain Yield (%) T2 Timing” value (Winter Wheat cv Limerick; T2 (Growth Stage 65-69)) was 103.7%. The “Grain Yield (g per Pot) T1 Timing” value (Winter Wheat cv Limerick) was 29.3 g per Pot, the “Grain Yield (g per Pot) T2 Timing” value (Winter Wheat cv Limerick) was 31.0 g per Pot and the “Seed Yield (%) T1 Timing” value ([1]; T1 (Growth Stage R1)) was 98.0%. The “Seed Yield (%) T2 Timing” value ([1]; T2 (Growth Stage R3)) was 99.8%, the “Seed Yield (g per Pot) T1 Timing” value [1] was 53.3 g per Pot and the “Seed Yield (g per Pot) T2 Timing” value [1] was 54.3 g per Pot. The “Seed Yield (%) T1 Timing” value (Glycine max (SOYBEAN); T1 (Growth Stage R1)) was 101.8%, the “Seed Yield (%) T2 Timing” value (Glycine max (SOYBEAN); T2 (Growth Stage R3)) was 101.8% and the “Seed Yield (g per Pot) T1 Timing” value (Glycine max (SOYBEAN)) was 33.5 g per Pot. The “Seed Yield (g per Pot) T2 Timing” value (Glycine max (SOYBEAN)) was 33.5 g per Pot.
`Nc1ccccc1C(=O)O` [AN, anthranilic acid] was tested, and the “Grain Yield (%) T1 Timing” value (Winter Barley cv Carat; T1 (Growth Stage 52)) was 96.8%, the “Grain Yield (%) T2 Timing” value (Winter Barley cv Carat; T2 (Growth Stage 65-69)) was 98.8% and the “Grain Yield (g per Pot) T1 Timing” value (Winter Barley cv Carat) was 24.0 g per Pot. For the same compound, the “Grain Yield (g per Pot) T2 Timing” value (Winter Barley cv Carat) was 24.5 g per Pot, the “Grain Yield (%) T1 Timing” value (Winter Wheat cv Limerick; T1 (Growth Stage 52)) was 99.7% and the “Grain Yield (%) T2 Timing” value (Winter Wheat cv Limerick; T2 (Growth Stage 65-69)) was 98.7%. The “Grain Yield (g per Pot) T1 Timing” value (Winter Wheat cv Limerick) was 29.8 g per Pot, the “Grain Yield (g per Pot) T2 Timing” value (Winter Wheat cv Limerick) was 29.5 g per Pot and the “Seed Yield (%) T1 Timing” value ([1]; T1 (Growth Stage R1)) was 102.0%. For the same compound, the “Seed Yield (%) T2 Timing” value ([1]; T2 (Growth Stage R3)) was 98.0%, the “Seed Yield (g per Pot) T1 Timing” value [1] was 55.5 g per Pot and the “Seed Yield (g per Pot) T2 Timing” value [1] was 53.3 g per Pot. The “Seed Yield (%) T1 Timing” value (Glycine max (SOYBEAN); T1 (Growth Stage R1)) was 99.7%, the “Seed Yield (%) T2 Timing” value (Glycine max (SOYBEAN); T2 (Growth Stage R3)) was 101.2% and the “Seed Yield (g per Pot) T1 Timing” value (Glycine max (SOYBEAN)) was 32.8 g per Pot. The “Seed Yield (g per Pot) T2 Timing” value (Glycine max (SOYBEAN)) was 33.3 g per Pot.
With `O=S(O)(O)=S` [Thiosulphate] the “Thousand Grain Weight (g) T1 Timing” value (Winter Barley cv Carat; T1 (Growth Stage 52)) was 46.5 g, the “Grain Yield (%) T1 Timing” value (Winter Barley cv Carat; T1 (Growth Stage 52)) was 102.8% and the “Thousand Grain Weight (g) T2 Timing” value (Winter Barley cv Carat; T2 (Growth Stage 65-69)) was 46.4 g. For the same compound, the “Grain Yield (%) T2 Timing” value (Winter Barley cv Carat; T2 (Growth Stage 65-69)) was 102.4%, the “Grain Yield (g per Pot) T1 Timing” value (Winter Barley cv Carat) was 25.5 g per Pot and the “Grain Yield (g per Pot) T2 Timing” value (Winter Barley cv Carat) was 25.4 g per Pot. For the same compound, the “Thousand Grain Weight (g) T1 Timing” value (Winter Wheat cv Limerick; T1 (Growth Stage 52)) was 50.4 g, the “Grain Yield (%) T1 Timing” value (Winter Wheat cv Limerick; T1 (Growth Stage 52)) was 108.4% and the “Thousand Grain Weight (g) T2 Timing” value (Winter Wheat cv Limerick; T2 (Growth Stage 65-69)) was 50.7 g. The “Grain Yield (%) T2 Timing” value (Winter Wheat cv Limerick; T2 (Growth Stage 65-69)) was 111.7%, the “Grain Yield (g per Pot) T1 Timing” value (Winter Wheat cv Limerick) was 32.4 g per Pot and the “Grain Yield (g per Pot) T2 Timing” value (Winter Wheat cv Limerick) was 33.4 g per Pot. The “Indiv Seed Weight (mg) T1 Timing” value ([1]; T1 (Growth Stage R1)) was 276 mg, the “Seed Yield (%) T1 Timing” value ([1]; T1 (Growth Stage R1)) was 108.6% and the “Indiv Seed Weight (mg) T2 Timing” value ([1]; T2 (Growth Stage R3)) was 275 mg. For the same compound, the “Seed Yield (%) T2 Timing” value ([1]; T2 (Growth Stage R3)) was 109.9%, the “Seed Yield (g per Pot) T1 Timing” value [1] was 59.1 g per Pot and the “Seed Yield (g per Pot) T2 Timing” value [1] was 59.8 g per Pot. For the same compound, the “Thousand Seed Weight (g) T1 Timing” value (Glycine max (SOYBEAN); T1 (Growth Stage R1)) was 160 g, the “Seed Yield (%) T1 Timing” value (Glycine max (SOYBEAN); T1 (Growth Stage R1)) was 108.8% and the “Thousand Seed Weight (g) T2 Timing” value (Glycine max (SOYBEAN); T2 (Growth Stage R3)) was 159 g. The “Seed Yield (%) T2 Timing” value (Glycine max (SOYBEAN); T2 (Growth Stage R3)) was 110.3%, the “Seed Yield (g per Pot) T1 Timing” value (Glycine max (SOYBEAN)) was 35.8 g per Pot and the “Seed Yield (g per Pot) T2 Timing” value (Glycine max (SOYBEAN)) was 36.3 g per Pot. For the same compound, the “% Screenings (2.2 mm)” value ([2]; sprayed at GS60, 2.2 mm) was 4.5%, the “% Screenings (2.5 mm)” value ([2]; sprayed at GS60, 2.5 mm) was 8.0% and the “Specific Weight (kg/hl)” value [2, 4] was 74.0 kg/hl. The “% Screenings (2.2 mm)” value ([3]; sprayed at GS60, 2.2 mm) was 4.8%, the “% Screenings (2.5 mm)” value ([3]; sprayed at GS60, 2.5 mm) was 7.3% and the “Specific Weight (kg/hl)” value [3, 4] was 68.3 kg/hl.
